Like-named read-outs stand apart in the source and are kept apart here.
Legend:
HL-60(TB) = experiment: SRB 48 h growth assay, Leukemia HL-60(TB); assay type: cell-based, human
HOP-62 = experiment: SRB 48 h growth assay, Non-small Cell Lung HOP-62; assay type: cell-based, human; settings: Homo sapiens, HOP-62, Non-small Cell Lung
NCI-H23 = experiment: SRB 48 h growth assay, Non-small Cell Lung NCI-H23; assay type: cell-based, human; settings: Homo sapiens, read-out: Log10 LC50 (converted)
KM12 = experiment: SRB 48 h growth assay, Colon KM12; assay type: cell-based, human; settings: Homo sapiens
SW-620 = experiment: SRB 48 h growth assay, Colon SW-620; assay type: cell-based, human; settings: Homo sapiens, SW-620, Colon
SNB-19 = experiment: SRB 48 h growth assay, CNS SNB-19; assay type: cell-based, human; settings: Homo sapiens, SNB-19, CNS, read-out: Log10 LC50 (converted)
LOX IMVI = experiment: SRB 48 h growth assay, Melanoma LOX IMVI; assay type: cell-based, human; settings: Homo sapiens
MDA-MB-435 = experiment: SRB 48 h growth assay, Melanoma MDA-MB-435; assay type: cell-based, human; settings: Homo sapiens, MDA-MB-435, Melanoma
ACHN = experiment: SRB 48 h growth assay, Renal ACHN; assay type: cell-based, human; settings: Homo sapiens
RXF393 = experiment: SRB 48 h growth assay, Renal RXF393; assay type: cell-based, human; settings: Homo sapiens
DU-145 = experiment: SRB 48 h growth assay, Prostate DU-145; assay type: cell-based, human; settings: Homo sapiens, DU-145, Prostate, read-out: Log10 LC50 (converted)
MCF7 = experiment: SRB 48 h growth assay, Breast MCF7; assay type: cell-based, human; settings: Homo sapiens
HS578T = experiment: SRB 48 h growth assay, Breast HS578T; assay type: cell-based, human
BT-549 = experiment: SRB 48 h growth assay, Breast BT-549; assay type: cell-based, human; settings: Homo sapiens, BT-549, Breast
MDA-MB-468 = experiment: SRB 48 h growth assay, Breast MDA-MB-468; assay type: cell-based, human; settings: Homo sapiens, MDA-MB-468, Breast
[1] = tested on: six leukemia cancer cell lines (CCRF-CEM, HL-60, K-562, MOLT-4, SR and RPMI-8226); experiment: in vitro anticancer activity, leukemia panel; assay type: cell-based; settings: Homo sapiens, exposure at least 48 h, read-out: GI50, range over panel
[2] = in vitro anticancer activity, non-small cell lung panel; assay type: cell-based; settings: Homo sapiens; nine non-small cell lung cancer cell lines, exposure at least 48 h; read-out: GI50, range over panel
[3] = tested on: two prostate cancer cell line (PC-3, DU-145); experiment: in vitro anticancer activity, prostate panel; assay type: cell-based; settings: Homo sapiens; two prostate cancer cell lines, exposure at least 48 h; read-out: GI50, range over panel
[4] = tested on: six breast cancer cell line (MCF-7, MDA-MB-231/ATCC, HS 578T, TD-47D, MDA-MB-468 and BT-549); experiment: in vitro anticancer activity, breast panel; assay type: cell-based; settings: Homo sapiens; six breast cancer cell lines, exposure at least 48 h; read-out: GI50, range over panel
[5] = read-out: Growth Inhibition GI50
[6] = read-out: Log10 GI50 (converted)
[7] = read-out: Log10 LC50 (converted)

C#Cc1ccc(-n2c(/C=C/c3ccc(Cl)c(F)c3)nc3ncccc3c2=O)cc1 [4g, (E)-2-(4-chloro-3-fluorostyryl)-3-(4-ethynylphenyl)pyrido[2,3-d]pyrimidin-4(3H)-one]
Log10 TGI50 (HL-60(TB)): >−4.00
GI50 (HOP-62; [5]): 580 nM
GI50 (HOP-62; [6]): 589 nM
LC50 (NCI-H23): > 100000 nM
GI50 (KM12; [5]): 340 nM
GI50 (KM12; [6]): 347 nM
GI50 (SW-620; [5]): 370 nM
GI50 (SW-620; [6]): 380 nM
CC50 (SW-620; [7]): > 100000 nM
CC50 (SNB-19): > 100000 nM
GI50 (LOX IMVI; [5]): 260 nM
GI50 (LOX IMVI; [6]): 263 nM
GI50 (MDA-MB-435; [5]): 190 nM
GI50 (MDA-MB-435; [6]): 195 nM
CC50 (MDA-MB-435; [7]): > 100000 nM
GI50 (ACHN; [5]): 390 nM
GI50 (ACHN; [6]): 398 nM
GI50 (RXF393; RXF 393, read-out: Growth Inhibition GI50): 280 nM
GI50 (RXF393; RXF 393, read-out: Log10 GI50 (converted)): 282 nM
CC50 (RXF393; RXF 393, read-out: Log10 LC50 (converted)): > 100000 nM
CC50 (DU-145): > 100000 nM
GI50 (MCF7; [5]): 320 nM
GI50 (MCF7; [6]): 324 nM
CC50 (MCF7; [7]): > 100000 nM
Log10 TGI50 (HS578T): >−4.00
GI50 (HS578T; Homo sapiens, Hs-578T, read-out: Growth Inhibition GI50): 410 nM
GI50 (HS578T; Homo sapiens, Hs-578T, read-out: Log10 GI50 (converted)): 417 nM
CC50 (HS578T; Homo sapiens, Hs-578T, read-out: Log10 LC50 (converted)): > 100000 nM
GI50 (BT-549; [5]): 320 nM
GI50 (BT-549; [6]): 324 nM
GI50 (MDA-MB-468; [5]): 240 nM
GI50 (MDA-MB-468; [6]): 245 nM
GI50 [1]: 250 to 540 nM
GI50 [2]: 200 to 580 nM
GI50 [3]: 340 nM
GI50 [4]: 240 to 410 nM

— patent US9783537B2, “3-(4-ethylnylphenyl) pyridopyrimidinone compounds and process for preparation thereof useful as potential anticancer agents” (Council of Scientific & Industrial Research, priority 2013, dated 2017)
